According to paper PMC12670405, “Second-Generation AURKA-Targeting PROTACs: Structural Optimization toward in Vivo Degradation in Neuroblastoma” (Journal of Medicinal Chemistry, 2025):
Read-outs that look alike come from different tables or passages of the source.

Tests used:
[1] = Metabolic stability in mouse liver microsomes (MLM); assay type: in vitro ADME, CD-1 mouse; conditions: CD-1
Procedure: Plasma and metabolic stability tests were performed by Eurofins Discovery. For the plasma stability assay, test compounds were incubated in CD-1 mouse plasma for 0, 0.5, 1, 1.5, and 2 h at 37 °C at a concentration of 1 μM. For the metabolic stability assay, test compounds were incubated at 37 °C in either (1) CD-1 mouse liver microsomes (MLM) (0.1 mg/mL) at a concentration of 0.1 μM for 0, 15, 30, 45, and 60 min or (2) CD-1 mouse hepatocytes (MH) (0.7 million viable cells/mL) at a concentration of 1 μM for 0, 0.5, 1, 1.5, and 2 h. At the respective time points, acetonitrile was added to the incubation mixture followed by centrifugation. Samples were analyzed by HPLC-MS/MS and peak areas were recorded for each analyte. Compound stability, expressed as the percentage of parent compound remaining, was calculated by comparing the peak area of the compound at each time point relative to that of the 0h time point. Percentage compound remaining is plotted as a function of time as a logarithmic curve. Half-life (t 1/2) is estimated from the slope of the initial linear range of the curve, assuming first-order kinetics. […] Both plasma and metabolic assay experiments were performed once with 2 replicate samples each.

[2] = In vivo pharmacokinetics study; design: species or system ICR (CD-1) mice; conditions: for clearance / bioavailability: male, ICR (CD-1), mouse, plasma; for clearance: iv, 15 mg/kg, read-out: CLIV, mouse (in vivo systemic clearance); for clearance / CLIV, mouse (in vivo systemic clearance): IV 15 mg/kg, noncompartmental analysis; for bioavailability: mice, PO 30 mg/kg vs IV 15 mg/kg
Procedure: Both the in vivo pharmacokinetics and in vivo pharmacodynamics studies were performed by Eurofins Pharmacology Discovery Services. All mice were provided by BioLasco Taiwan (under Charles River Laboratories Licensee). Animals were acclimated for 3 days prior to use and were confirmed to be in good health. All aspects of this work including housing, experimentation, and animal disposal were performed in general accordance with the “Guide for the Care and Use of Laboratory Animals: Eighth Edition” (National Academies Press, Washington, DC. 2011) in a AAALAC-accredited laboratory animal facility. In addition, the animal care and use protocol was reviewed and approved by the IACUC at Eurofins Pharmacology Discovery Services; IN020-08202020 and ON002-07142023.
Male ICR (CD-1) mice, weighing 30 ± 5 g, were given intravenous (IV), intraperitoneal (IP) or oral gavage (PO) administrations of PROTACs at 15 mg/kg (IV and IP) or 30 mg/kg (PO). Dosing volumes used were 5 mL/kg (IV and IP) and 10 mL/kg (PO). The test compounds were dissolved in 5% DMSO/5% Solutol HS15/90% PBS. Serial blood samples were collected at 0.05, 0.167, 0.5, 1, 2, 4, 8, 12 h postadministration (an additional 24h sample was collected for IV-administered mice). Blood samples were collected from three animals at each time point via facial vein (±50 μL) for the first time points and cardiac puncture (±300 μL) for the final time point and stored in tubes coated with lithium heparin. Within 1h of collection, samples were mixed gently and centrifuged at 2500 g for 15 min at 4 °C. Plasma samples were then harvested and kept frozen at −70 °C until further processing. Samples were processed using acetonitrile precipitation and analyzed by LC–MS/MS. Mean plasma concentrations were plotted as a function of time and the fundamental PK parameters were obtained from a noncompartmental analysis (NCA) using WinNonlin. Free drug levels (C p,u) for SK4454 and SK5527 were calculated by factoring in their plasma protein binding (f u) values using the following formula: C p,u = C p * f u.

NGP = assay: IncuCyte live-cell imaging, antiproliferative effect; assay type: cell-based; conditions: Homo sapiens, 72 h
In short: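 Cells seeded in 384-well plates (neuroblastoma 1200–5000, HEK293T 600 cells/well), adhered overnight, then compound-treated in duplicate or triplicate; confluency tracked by IncuCyte live-cell imaging. Normalized confluence averaged from 3 experiments; absolute GI50 interpolated from four-parameter variable-slope curves.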

SMILES | microsomal CLint at 0.1 μM [1] | clearance [2] | GI50 (NGP; read-out: GI50 72h, 72h) | GI50 (NGP; read-out: pGI50 (converted)) | GI50 (NGP; read-out: Cell GI50 72h, NGP (Figure 4B)) | CLIV, mouse (in vivo systemic clearance) ([2]; listed as PROTAC 32, 15 mg/kg) | bioavailability [2] | CLIV, mouse (in vivo systemic clearance) ([2]; listed as PROTAC 33, 15 mg/kg)
O=C1CCC(Nc2ccc(N3CCN(C4CN(C(=O)[C@]5(Cc6cccc(Nc7nccs7)n6)CC[C@@H](Oc6cccc(Cl)c6F)CC5)C4)CC3)c(F)c2)C(=O)N1 (stereo partly drawn) [PROTAC 18] | 369 µL/min/mg | 23 mL/min/kg | 17 nM | 17 nM | – | – | – | –
O=C1CCN(c2ccc(N3CCN(CC4CN(C(=O)[C@]5(Cc6cccc(Nc7nccs7)n6)CC[C@@H](Oc6cccc(Cl)c6F)CC5)C4)CC3)nc2)C(=O)N1 [PROTAC 23] | 666 µL/min/mg | 35 mL/min/kg | 24 nM | 23.4 nM | – | – | – | –
O=C1CCN(c2ccc(N3CCN(CC4CCN(C(=O)[C@]5(Cc6cccc(Nc7nccs7)n6)CC[C@@H](Oc6cccc(Cl)c6F)CC5)CC4)CC3)nc2)C(=O)N1 [PROTAC 24] | 565 µL/min/mg | 22 mL/min/kg | 28 nM | 27.5 nM | – | – | – | –
Cc1cc(Nc2ccc(F)c(CC3(C(=O)N4CC(N5CCN(c6ccc(NC7CCC(=O)NC7=O)cc6F)CC5)C4)CCN(Cc4cccc(Cl)c4F)CC3)n2)n[nH]1 (stereo not drawn) [PROTAC 29] | 438 µL/min/mg | 38 mL/min/kg | 36 nM | 36.3 nM | – | – | – | –
O=C1CCC(N2C(=O)c3cccc(OCCOCCOCCOCCNC(=O)[C@]4(Cc5cccc(Nc6nccs6)n5)CC[C@@H](Oc5cccc(Cl)c5F)CC4)c3C2=O)C(=O)N1 (stereo partly drawn) [SK2188, reference compound] | 1390 µL/min/mg | 114 mL/min/kg | 40 nM | 39.8 nM | 19 nM | – | – | –
Cc1cc(Nc2ccc(F)c(CC3(C(=O)N4CCC(CN5CCN(c6ccc(N7CCC(=O)NC7=O)cn6)CC5)CC4)CCN(Cc4cccc(Cl)c4F)CC3)n2)n[nH]1 [SK4454] | 437 µL/min/mg | 18 mL/min/kg | 35 nM | 34.7 nM | – | 18.1 mL/min/kg | 7% | –
Cc1cc(Nc2ccc(F)c(CC3(C(=O)N4CCC(F)(CN5CCN(c6ccc(N7CCC(=O)NC7=O)cn6)CC5)CC4)CCN(Cc4cccc(Cl)c4F)CC3)n2)n[nH]1 [SK5527] | 582 µL/min/mg | 12 mL/min/kg | 42 nM | 41.7 nM | – | – | 11% | 12.2 mL/min/kg
